Reference: US7741355B2, “Small-molecule modulators of TRP-p8 activity” (Dendreon Corporation, priority 2006, dated 2010)
pEC50: −log10 of the molar value. Read-outs that look alike come from different tables or passages of the source.

Molecular target: T1, Trp-p8 (Homo sapiens, UniProt Q7Z2W7, T58I)
T1 construct: expressed in transfected cells; host or cells: CHO (Chinese Hamster Ovary) cells
Assay: ATP viability assay with CHO/Trp-p8 cells at 37° C.
Format: cell-based
Conditions: CHO/Trp-p8 cells, 24-26 hours at 37° C., 50% reduction in relative cell viability, read-out: EC50
Excerpt: Human Trp-p8 transfected CHO cells (referred to herein as CHO/Trp-p8) were generated for use in experiments of the present invention. Expression of Trp-p8 polypeptide in this transfectant and the absence of any endogenous expression in the non-transfected CHO was confirmed by western blot and immunofluorescence using a Trp-p8 specific antibody (GS2.20) as well as the calcium flux assay with Icilin (1-[2-hydroxyphenyl]-4-[3-nitrophenyl]-1,2,3,6-tetrahydropyrimidine-2-one) and menthol (2-isopropyl-5-methyl-cyclohexanol). Non-transfected CHO cells were used to establish the specificity of the effects of the compounds observed with CHO/Trp-p8.
This Example discloses an ATP viability assay suitable for screening for effective Trp-p8 agonists. The ATP viability assay described herein employs CHO cells expressing an exogenous Trp-p8 cDNA. This example further establishes that Trp-p8 agonists of the present invention are effective in decreasing the viability of Trp-p8 expressing cells.
The concentration of intracellular ATP declines very rapidly when metabolically active cells undergo necrosis and/or apoptosis. The ATP concentration and consequently the relative cell viability can be measured by established methods using commercially available reagents. In the agonist screening methodology disclosed herein, a compound that specifically decreases the viability of CHO/Trp-p8 cells is referred to as an agonist.
As a primary screen for efficacy and specificity for agonists, both the non-transfected CHO and CHO/Trp-p8 cells were exposed to 1 or 10 μM of test compounds in 1% dimethylsulfoxide (DMSO) or 1% DMSO (control) in a 96-well black walled, black-bottomed, cell-culture treated plate. DMSO was the solvent for all of the compounds tested. After 24-26 hours at 37° C., the cells were lysed and ATP concentration determined via a chemiluminescence assay using a commercially available reagent kit—Cell Titer-Glo (Promega; Madison, Wis.). […] (EC50 is defined herein as the agonist concentration at which there is a 50% reduction in relative cell viability).

T1 sequence (Q7Z2W7 whole entry T58I): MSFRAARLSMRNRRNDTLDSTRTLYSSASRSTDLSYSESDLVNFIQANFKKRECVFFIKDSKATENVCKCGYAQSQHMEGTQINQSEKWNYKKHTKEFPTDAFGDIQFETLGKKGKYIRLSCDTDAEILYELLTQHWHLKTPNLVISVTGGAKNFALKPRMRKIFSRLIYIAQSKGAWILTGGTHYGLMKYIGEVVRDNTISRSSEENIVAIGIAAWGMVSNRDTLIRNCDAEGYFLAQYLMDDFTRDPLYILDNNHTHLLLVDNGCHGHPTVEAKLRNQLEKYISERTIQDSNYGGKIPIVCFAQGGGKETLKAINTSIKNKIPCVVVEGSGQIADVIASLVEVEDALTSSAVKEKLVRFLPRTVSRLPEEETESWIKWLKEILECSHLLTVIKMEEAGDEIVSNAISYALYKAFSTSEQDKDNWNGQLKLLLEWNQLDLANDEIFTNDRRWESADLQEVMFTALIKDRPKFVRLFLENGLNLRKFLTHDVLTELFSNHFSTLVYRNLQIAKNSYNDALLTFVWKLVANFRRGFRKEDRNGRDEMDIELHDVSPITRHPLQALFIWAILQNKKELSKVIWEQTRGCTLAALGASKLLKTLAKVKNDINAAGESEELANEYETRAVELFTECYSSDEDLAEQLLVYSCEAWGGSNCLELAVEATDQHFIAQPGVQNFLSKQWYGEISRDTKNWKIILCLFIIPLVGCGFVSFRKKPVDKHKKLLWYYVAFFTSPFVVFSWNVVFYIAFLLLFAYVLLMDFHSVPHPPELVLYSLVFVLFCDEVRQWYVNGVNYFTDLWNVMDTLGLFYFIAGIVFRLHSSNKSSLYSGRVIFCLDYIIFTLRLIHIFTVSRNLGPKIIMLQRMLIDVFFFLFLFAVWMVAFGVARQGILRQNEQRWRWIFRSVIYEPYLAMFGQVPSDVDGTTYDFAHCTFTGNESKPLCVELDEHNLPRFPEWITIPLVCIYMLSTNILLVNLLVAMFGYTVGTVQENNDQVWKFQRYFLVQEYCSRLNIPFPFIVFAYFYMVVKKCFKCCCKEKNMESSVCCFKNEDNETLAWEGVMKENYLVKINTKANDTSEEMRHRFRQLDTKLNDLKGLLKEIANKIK

Question: With `CC(C)[C@@H]1CC[C@@H](C)C[C@H]1C(=O)n1c(=O)n(CCN)c2cc(OCCCO)ccc21` [Compound 37, 3-(2-aminoethyl)-5-(3-hydroxypropoxy)-1-(2-isopropyl-5-methylcyclohexanecarbonyl)-1,3-dihydro-benzoimidazol-2-one] as the compound, how does the pEC50 (Table 5, Formula I-E) read?
Answer: > 7.70

Question: How did the pEC50 (Table 5, Formula I-E) turn out when `CC(C)[C@@H]1CC[C@@H](C)C[C@H]1C(=O)n1c(=O)n(CCN)c2ncccc21` [Compound 57] was run?
Answer: 7.30 to 7.68

Question: How did the pEC50 (Table 3, Formula I-C) turn out when `CC(C)[C@@H]1CC[C@@H](C)C[C@H]1C(=O)NCC(OCCN)c1ccccc1` (some centres unmarked) [Compound 30, 2-Isopropyl-5-methyl-cyclohexanecarboxylic[2-(2-amino-4-ethoxy)-2-phenyl-ethyl]-amide] was run?
Answer: > 7.70

Question: How did the pEC50 (Table 2, Formula I-B) turn out when `COC(=O)c1ccc(-c2cc(NC(=O)[C@@H]3C[C@H](C)CC[C@H]3C(C)C)n(CCN)n2)cc1` [Compound 25] was run?
Answer: 7.00 to 7.29

Question: How did the pEC50 (Table 5, Formula I-E) turn out when `CCCCOc1ccc2c(c1)n(CCN)c(=O)n2C(=O)[C@@H]1C[C@H](C)CC[C@H]1C(C)C` [Compound 67] was run?
Answer: 7.00 to 7.29

Question: How did the pEC50 (Table 5, Formula I-E) turn out when `CC(C)[C@@H]1CC[C@@H](C)C[C@H]1C(=O)n1c(=O)n(CCN)c2cc(S(C)(=O)=O)ccc21` [Compound 39] was run?
Answer: > 7.70

Question: With `CC(C)[C@@H]1CC[C@@H](C)C[C@H]1C(=O)n1c(=O)n(CCN)c2cc(C(=O)N[C@@H](CO)[C@@H](O)c3ccccc3)ccc21` [Compound 72] as the compound, how does the pEC50 (Table 5, Formula I-E) read?
Answer: 7.00 to 7.29

Question: With `CC(C)[C@@H]1CC[C@@H](C)C[C@H]1C(=O)n1c(=O)n(CCCCN)c2ccccc21` [Compound 76] as the compound, how does the pEC50 (Table 5, Formula I-E) read?
Answer: 7.00 to 7.29

Question: How did the pEC50 (Table 5, Formula I-E) turn out when `COCCNC(=O)c1ccc2c(c1)n(CCN)c(=O)n2C(=O)[C@@H]1C[C@H](C)CC[C@H]1C(C)C` [Compound 49] was run?
Answer: > 7.70

Question: `COc1ccc(NC(=O)[C@@H]2C[C@H](C)CC[C@H]2C(C)C)c(NC(=O)[C@H](N)CO)c1` [Compound 7] was tested. Which pEC50 (Table 1, Formula I-A) did it give?
Answer: 7.30 to 7.68

Question: How did the pEC50 (Table 1, Formula I-A) turn out when `CC(C)[C@@H]1CC[C@@H](C)C[C@H]1C(=O)Nc1cc2ccccc2cc1NCCN` [Compound 8] was run?
Answer: 7.30 to 7.68

Question: `COc1ccc(NC(=O)[C@@H]2C[C@H](C)CC[C@H]2C(C)C)c(C(=O)NCCN)c1` [Compound 5] was tested. Which pEC50 (Table 1, Formula I-A) did it give?
Answer: > 7.70

Question: How did the pEC50 (Table 1, Formula I-A) turn out when `COc1ccc(NC(=O)[C@@H]2C[C@H](C)CC[C@H]2C(C)C)c(NC(=O)[C@H](N)[C@H](C)O)c1` [Compound 12] was run?
Answer: 7.00 to 7.29

Question: `CNCCn1nc(-c2ccccc2)cc1NC(=O)[C@@H]1C[C@H](C)CC[C@H]1C(C)C` [Compound 21] was tested. Which pEC50 (Table 2, Formula I-B) did it give?
Answer: 7.30 to 7.68

Question: `CC(C)[C@@H]1CC[C@@H](C)C[C@H]1C(=O)Nc1ccc2ccccc2c1OCCN` [Compound 3] was tested. Which pEC50 (Table 1, Formula I-A) did it give?
Answer: > 7.70

Question: With `CC(C)[C@@H]1CC[C@@H](C)C[C@H]1C(=O)n1c(=O)n(CCN)c2cc(C(=O)NCC(N)=O)ccc21` [Compound 73] as the compound, how does the pEC50 (Table 5, Formula I-E) read?
Answer: 7.00 to 7.29

Question: `CSc1ccc2c(c1)n(CCN)c(=O)n2C(=O)[C@@H]1C[C@H](C)CC[C@H]1C(C)C` [Compound 42, 3-(2-Amino-ethyl)-1-(2-isopropyl-5-methyl-cyclohexanecarbonyl)-5-methylsulfanyl-1,3-dihydro-benzoimidazol-2-one] was tested. Which pEC50 (Table 5, Formula I-E) did it give?
Answer: > 7.70

Question: With `CSc1ccc(NC(=O)[C@@H]2C[C@H](C)CC[C@H]2C(C)C)c(NCCN)c1` [Compound 4, 2-Isopropyl-5-methyl-cyclohexanecarboxylic acid [2-(2-amino-ethylamino)-4-methylsulfanyl-phenyl]amide] as the compound, how does the pEC50 (Table 1, Formula I-A) read?
Answer: > 7.70

Question: `CCOc1ccc2c(c1)n(CCN)c(=O)n2C(=O)[C@@H]1C[C@H](C)CC[C@H]1C(C)C` (stereo in doubt) [Compound 38, 3-(2-Aminoethyl)-5-ethoxy-1-(2-isopropyl-5-methylcyclohexanecarbonyl)-1,3-dihydro-benzoimidazol-2-one] was tested. Which pEC50 (Table 5, Formula I-E) did it give?
Answer: > 7.70

Question: How did the pEC50 (Table 1, Formula I-A) turn out when `COc1ccc(NC(=O)[C@@H]2C[C@H](C)CC[C@H]2C(C)C)c(NC(=O)CN)c1` [Compound 13] was run?
Answer: 7.00 to 7.29

Question: How did the pEC50 (Table 5, Formula I-E) turn out when `CCOC(=O)N1CCN(C(=O)c2ccc3c(c2)n(CCN)c(=O)n3C(=O)[C@@H]2C[C@H](C)CC[C@H]2C(C)C)CC1` [Compound 69] was run?
Answer: 7.00 to 7.29

Question: `CC(C)[C@@H]1CC[C@@H](C)C[C@H]1C(=O)n1c(=O)n(CCN)c2cc(C(=O)Nc3ccncc3)ccc21` [Compound 56] was tested. Which pEC50 (Table 5, Formula I-E) did it give?
Answer: 7.30 to 7.68

Question: How did the pEC50 (Table 5, Formula I-E) turn out when `CC(C)[C@@H]1CC[C@@H](C)C[C@H]1C(=O)n1c(=O)n(CCN)c2ccc(C(F)(F)F)cc21` [Compound 61] was run?
Answer: 7.30 to 7.68

Question: How did the pEC50 (Table 2, Formula I-B) turn out when `CC(C)[C@@H]1CC[C@@H](C)C[C@H]1C(=O)Nc1cc(-c2cccn2C)nn1CCN` [Compound 17, 2-Isopropyl-5-methyl-cyclohexane carboxylic acid-[2-(2-amino-ethyl)-5-(1-methyl-1H-pyrrol-2-yl)-2H-pyrazol-3-yl]-amide] was run?
Answer: > 7.70

Question: How did the pEC50 (Table 5, Formula I-E) turn out when `CC(C)[C@@H]1CC[C@@H](C)C[C@H]1C(=O)n1c(=O)n(CCN)c2ccccc21` [Compound 50, 1-(2-Aminoethyl)-3-(2-isopropyl-5-methylcyclohexanecarbonyl)-1,3-dihydro-benzoimidazol-2-one] was run?
Answer: > 7.70

Question: With `COc1ccc(NC(=O)[C@@H]2C[C@H](C)CC[C@H]2C(C)C)c(NC(=O)[C@@H](C)N)c1` [Compound 1, 2-Isopropyl-5-methyl-cyclohexanecarboxylic acid-[2-(2-aminopropionylamino)-4-methoxylphenyl]amide] as the compound, how does the pEC50 (Table 1, Formula I-A) read?
Answer: > 7.70

Question: With `CC(C)[C@@H]1CC[C@@H](C)C[C@H]1C(=O)n1c(=O)n(CCN)c2cc(C(=O)N(C)c3ccccc3)ccc21` [Compound 68] as the compound, how does the pEC50 (Table 5, Formula I-E) read?
Answer: 7.00 to 7.29

Question: How did the pEC50 (Table 1, Formula I-A) turn out when `CSc1ccc(NC(=O)[C@@H]2C[C@H](C)CC[C@H]2C(C)C)c(C(=O)NCCN)c1` [Compound 2] was run?
Answer: > 7.70

Question: `CC(C)[C@@H]1CC[C@@H](C)C[C@H]1C(=O)NCC(NCCN)c1ccccc1` (some centres unmarked) [Compound 32] was tested. Which pEC50 (Table 3, Formula I-C) did it give?
Answer: 7.00 to 7.29

Question: `CC(C)[C@@H]1CC[C@@H](C)C[C@H]1C(=O)n1c(=O)n(CCN)c2cc(C(=O)N3CCOCC3)ccc21` [Compound 64] was tested. Which pEC50 (Table 5, Formula I-E) did it give?
Answer: 7.30 to 7.68

Question: `CC(C)[C@@H]1CC[C@@H](C)C[C@H]1C(=O)NCCc1ccccc1NCCN` [Compound 33, 2-Isopropyl-5-methyl-cyclohexanecarboxylic acid {2-[2-(2-amino-ethylamino)-phenyl]-ethyl}-amide] was tested. Which pEC50 (Table 4, Formula I-D) did it give?
Answer: > 7.70

Question: With `CC(C)[C@@H]1CC[C@@H](C)C[C@H]1C(=O)Nc1cc(-c2ccccc2)nn1C[C@H](C)N` [Compound 22] as the compound, how does the pEC50 (Table 2, Formula I-B) read?
Answer: 7.30 to 7.68

Question: `CC(C)[C@@H]1CC[C@@H](C)C[C@H]1C(=O)n1c(=O)n(CCN)c2cc(C(=O)NCCc3ccccc3)ccc21` [Compound 71] was tested. Which pEC50 (Table 5, Formula I-E) did it give?
Answer: 7.00 to 7.29

Question: How did the pEC50 (Table 4, Formula I-D) turn out when `CC(C)[C@@H]1CC[C@@H](C)C[C@H]1C(=O)NCCc1ccccc1CN` [Compound 34] was run?
Answer: > 7.70

Question: `CC(C)[C@@H]1CC[C@@H](C)C[C@H]1C(=O)n1c(=O)n(CCN)c2cc(C(=O)Nc3cccnc3)ccc21` (stereo in doubt) [Compound 48, 3-(2-Amino-ethyl)-1-(2-isopropyl-5-methylcyclohexanecarbonyl)-2-oxo-2,3-dihydro-1H-benzoimidazole-5-carboxylic acid pyridine-3-yl amide] was tested. Which pEC50 (Table 5, Formula I-E) did it give?
Answer: > 7.70

Question: `CC(C)[C@@H]1CC[C@@H](C)C[C@H]1C(=O)Nc1cc(-c2ccccc2)nn1C[C@@H](C)N` [Compound 15] was tested. Which pEC50 (Table 2, Formula I-B) did it give?
Answer: > 7.70

Question: How did the pEC50 (Table 5, Formula I-E) turn out when `C#CCOc1ccc2c(c1)n(CCN)c(=O)n2C(=O)[C@@H]1C[C@H](C)CC[C@H]1C(C)C` [Compound 46] was run?
Answer: > 7.70

Question: `CC(C)[C@@H]1CC[C@@H](C)C[C@H]1C(=O)n1c(=O)n(CCCN)c2ccccc21` [Compound 58] was tested. Which pEC50 (Table 5, Formula I-E) did it give?
Answer: 7.30 to 7.68

Question: With `CC(C)[C@@H]1CC[C@@H](C)C[C@H]1C(=O)n1c(=O)n(C[C@@H](C)N)c2ccccc21` [Compound 45, 1-(2-Amino-2-(R)-methylethyl)-3-(2-isopropyl-5-methylcyclohexanecarbonyl)-1,3-dihydro-benzoimidazol-2-one] as the compound, how does the pEC50 (Table 5, Formula I-E) read?
Answer: > 7.70

Question: `CC(C)[C@@H]1CC[C@@H](C)C[C@H]1C(=O)Nc1cc(-c2ccco2)nn1CCN` [Compound 14, 2-Isopropyl-5-methyl-cyclohexane carboxylic acid-[2-(2-amino-ethyl)-5-furan-2-yl-2H-pyrazol-3-yl]-amide] was tested. Which pEC50 (Table 2, Formula I-B) did it give?
Answer: > 7.70

Question: `CC(C)[C@@H]1CC[C@@H](C)C[C@H]1C(=O)NCC(OCCCN)c1ccccc1` (some centres unmarked) [Compound 31, 2-Isopropyl-5-methyl-cyclohexanecarboxylic[2-(3-amino-4-propoxy)-2-phenyl-ethyl]-amide] was tested. Which pEC50 (Table 3, Formula I-C) did it give?
Answer: 7.30 to 7.68

Question: How did the pEC50 (Table 1, Formula I-A) turn out when `CC[C@@H](N)C(=O)Nc1cc(OC)ccc1NC(=O)[C@@H]1C[C@H](C)CC[C@H]1C(C)C` [Compound 6] was run?
Answer: 7.30 to 7.68

Question: How did the pEC50 (Table 2, Formula I-B) turn out when `CC(C)[C@@H]1CC[C@@H](C)C[C@H]1C(=O)Nc1cc(-c2ccccc2)nn1CCCN` [Compound 18] was run?
Answer: > 7.70

Question: With `CC(C)[C@@H]1CC[C@@H](C)C[C@H]1C(=O)Nc1cc(-c2cccc(C#N)c2)nn1CCN` [Compound 23] as the compound, how does the pEC50 (Table 2, Formula I-B) read?
Answer: 7.30 to 7.68
